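Each compound was tested at five concentrations against cells in 96-well plates for 48 hours. Definition used: TGI = concentration required for complete inhibition of growth.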
How the values were obtained:
Assay in all cases: NCI anticancer screen, dose series, 48 h
SNB-19 CNS = test system: SNB-19 CNS
DU-145 prostate = test system: DU-145 prostate
RPMI-8226 leukemia = test system: RPMI-8226 leukemia
M14 melanoma = test system: M14 melanoma
NCI-H23 lung = test system: NCI-H23 lung
MDA-MB-435 = test system: MDA-MB-435
TK-10 renal = test system: TK-10 renal
CAKI-1 renal = test system: CAKI-1 renal
A549 NSCLC = test system: A549 NSCLC
CCRF-CEM leukemia = test system: CCRF-CEM leukemia
HCC-2998 colon = test system: HCC-2998 colon
U251 CNS = test system: U251 CNS
T-47D breast = test system: T-47D breast
SN12C renal = test system: SN12C renal
UACC-257 melanoma = test system: UACC-257 melanoma

| Structure (SMILES) | TGI (SNB-19 CNS) | TGI (DU-145 prostate) | TGI (RPMI-8226 leukemia) | TGI (M14 melanoma) | TGI (NCI-H23 lung) | TGI (MDA-MB-435) | TGI (TK-10 renal) | TGI (CAKI-1 renal) | TGI (A549 NSCLC) | TGI (CCRF-CEM leukemia) | TGI (HCC-2998 colon) | TGI (U251 CNS) | TGI (T-47D breast) | TGI (SN12C renal) | TGI (UACC-257 melanoma) |
| --- | --- | --- | --- | --- | --- | --- | --- | --- | --- | --- | --- | --- | --- | --- | --- |
| CC1(C)CC(=O)/C(=C/C2CCNC2=S)C(=O)N1 (stereo not given) | > 100 µM | > 100 µM | > 100 µM | > 100 µM | > 100 µM | > 100 µM | > 100 µM | > 100 µM | > 100 µM | > 100 µM | > 100 µM | > 100 µM | > 100 µM | > 100 µM | > 100 µM |
| Cc1cc(C)nc(NS(=O)(=O)c2ccc(NN=c3c4ccccc4n(C)c4ccccc34)cc2)n1 | > 100 µM | > 100 µM | > 100 µM | > 100 µM | > 100 µM | 69.1 µM | > 100 µM | > 100 µM | > 100 µM | 77.6 µM | 89.8 µM | > 100 µM | 80.8 µM | > 100 µM | > 100 µM |
| CC1CC(C)[C@H](O)C([C@H](O)CC2CC(=O)N(C)C(=O)C2)C1 (stereo not given in full) | > 100 µM | > 100 µM | > 100 µM | > 100 µM | > 100 µM | > 100 µM | > 100 µM | > 100 µM | > 100 µM | > 100 µM | > 100 µM | > 100 µM | > 100 µM | > 100 µM | > 100 µM |
| C=C(C)C#CC(O)(C(=O)OC1CCN(C)CC1)C(C)C (stereo not given) | > 100 µM | > 100 µM | > 100 µM | > 100 µM | > 100 µM | > 100 µM | > 100 µM | > 100 µM | > 100 µM | > 100 µM | > 100 µM | > 100 µM | > 100 µM | > 100 µM | > 100 µM |
| C=C1CC(Cn2ccc(=O)[nH]c2=O)(c2ccc(-c3ccccc3)cc2)OC1=O (stereo not given) | 34 µM | 2.88 µM | 1.29 µM | 3.58 µM | 8.4 µM | 6.12 µM | 2.32 µM | 2.7 µM | 24.9 µM | 1.2 µM | 4.12 µM | 25 µM | 6.45 µM | 21.3 µM | 3.88 µM |
| C/C(=N/NC(=O)c1ccncc1)c1ccc(NC(=O)C(=O)Nn2c(=S)[nH]c3ccccc3c2=O)cc1 | > 100 µM | > 100 µM | > 100 µM | > 100 µM | > 100 µM | > 100 µM | > 100 µM | > 100 µM | > 100 µM | > 100 µM | > 100 µM | > 100 µM | > 100 µM | > 100 µM | > 100 µM |
| COc1cc(O)c2c(=O)c(OC)c(-c3ccc4c(c3)OCO4)oc2c1 | > 84.1 µM | > 100 µM | > 100 µM | > 100 µM | > 100 µM | > 100 µM | > 100 µM | > 100 µM | > 100 µM | > 100 µM | > 100 µM | 30.2 µM | > 100 µM | > 100 µM | > 100 µM |
| CC1=C(C(=O)N[C@@H](Cc2ccccc2)C(=O)O)N2C(=O)[C@@H](NC(=O)[C@@H](N)CC(C)C)[C@H]2SC1 | > 100 µM | > 100 µM | > 100 µM | > 100 µM | – | > 100 µM | > 100 µM | > 100 µM | > 100 µM | > 100 µM | > 100 µM | > 100 µM | > 100 µM | > 100 µM | > 100 µM |
| COc1cc(C2S/C(=C/c3ccccc3)C(=O)N2c2cc(Cl)ccc2Cl)cc(OC)c1OC (stereo not given) | > 100 µM | > 100 µM | > 100 µM | 62.4 µM | > 100 µM | > 100 µM | > 100 µM | > 100 µM | > 100 µM | > 100 µM | > 100 µM | > 100 µM | > 100 µM | > 100 µM | > 100 µM |
| O[C@@]1(c2cccs2)c2cccc(Cl)c2[C@](O)(c2cccs2)c2cccc(Cl)c21 | 80.3 µM | 64.6 µM | 66.2 µM | 31.5 µM | 39.8 µM | 35 µM | 99.4 µM | > 100 µM | 43.7 µM | > 100 µM | 32.7 µM | 33.2 µM | > 100 µM | 34.1 µM | 30.3 µM |
| COc1cccc(/C(CC(O)(C(F)(F)F)C(F)(F)F)=N\N(C)C)c1 | > 100 µM | > 100 µM | > 100 µM | > 100 µM | > 100 µM | > 100 µM | > 100 µM | > 100 µM | > 100 µM | > 100 µM | > 100 µM | > 100 µM | > 100 µM | > 100 µM | – |
| O=C1c2cccc3cccc(c23)C(=O)N1CCCNCCCCNCCCN1C(=O)c2cccc3cccc(c23)C1=O | 4.35 µM | 1.14 µM | 0.179 µM | 1.94 µM | 0.866 µM | 1.28 µM | 7.62 µM | 5.65 µM | 0.833 µM | 0.205 µM | 0.568 µM | 1.22 µM | 4.32 µM | 2.37 µM | 1.91 µM |
| C[n+]1noc(/N=N\[O-])c1-c1cc(-c2c(/N=N\[O-])on[n+]2C)cc(-c2c(/N=N/[O-])on[n+]2C)c1 | > 100 µM | > 100 µM | > 100 µM | > 100 µM | > 100 µM | > 100 µM | > 100 µM | > 100 µM | > 100 µM | > 100 µM | > 100 µM | > 100 µM | > 100 µM | > 100 µM | > 100 µM |
| CN1CCC(CNC(=O)CCCCCCCCC(=O)NCC2(c3ccccc3)CCN(C)CC2)(c2ccccc2)CC1 | > 100 µM | > 100 µM | > 100 µM | > 100 µM | – | > 100 µM | > 100 µM | – | > 100 µM | > 100 µM | > 100 µM | > 100 µM | > 100 µM | > 100 µM | > 100 µM |
| CC1(C)OCC2(CO1)CSCCCSCC1(COC(C)(C)OC1)CSCCCSC2 | > 100 µM | > 100 µM | > 100 µM | > 100 µM | > 100 µM | > 100 µM | > 100 µM | – | > 100 µM | > 100 µM | > 100 µM | > 100 µM | > 100 µM | > 100 µM | > 100 µM |

Source: PubChem BioAssay (NCI)
